Results on 1 compound are retold here after patent US20250270564A1, “EXTRACELLULAR VESICLE SECRETION BOOSTER FOR BOOSTING EXTRACELLULAR VESICLE SECRETION, AND USE THEREOF” (THEORIA SCIENCE INC., priority 2021, published 2025).

The test system of one assay is HCT116. The assay can be described thus: Amount of secreted EVs (ExoScreen / NTA method). Format: cell-based, human. To be noted: inhibitor at 10 nmol/L or 100 nmol/L, FIG. 12. On the procedure:
For preparation of a secreted EV sample for the ExoScreen method, cells were cultured and supernatant was collected as follows. First, cells were seeded in a 96-well plate using a serum-supplemented medium (the medium according to the type of cells) at 5×10^3 cells/medium 0.1 mL/well (Day 0). After incubation for 24 hours (Day 1), […], and the cells were transfected with the miRNA using a transfection agent (product name Dhermafect1, manufactured by Dhermacon, the same shall apply hereinafter) according to the instructions for use. […]
(§1) For preparation of a secreted EV sample for the NTA method, cells were cultured and supernatant was collected and purified as follows. […] After collecting the supernatant, the number of cells in each well was counted. […]
EV detection was performed using an exosome marker CD9 or C63 according to the ExoScreen method. EV detection was performed using an AlphaLISA reagent (Perkin Elmer) composed of AlphaScreen streptavidin-coated donor beads (6760002), AlphaLISA unconjugated acceptor beads (6062011), and an AlphaLISA universal buffer (AL001F), a 96-well half-area white plate (6005560, Perkin Elmer), and a detection device EnSpire Alpha 2300 Mutilabel plate reader (Perkin Elmer). […] Next, luminescence in the wells of the plate was measured using the detection device with the excitation wavelength set to 680 nm and the emission detection wavelength set to 615 nm. […]

The next assay deals with A549. The assay can be described thus: Amount of secreted EVs (ExoScreen / NTA method). The conditions noted are these: inhibitor at 10 nmol/L or 100 nmol/L, FIG. 11. Format: cell-based, human. On the procedure: For preparation of a secreted EV sample for the ExoScreen method, cells were cultured and supernatant was collected as follows. First, cells were seeded in a 96-well plate using a serum-supplemented medium (the medium according to the type of cells) at 5×10^3 cells/medium 0.1 mL/well (Day 0). After incubation for 24 hours (Day 1), 10 fmol of the miRNA was added, and the cells were transfected with the miRNA using a transfection agent (product name Dhermafect1, manufactured by Dhermacon, the same shall apply hereinafter) according to the instructions for use. […]
as §1
EV detection was performed using an exosome marker CD9 or C63 according to the ExoScreen method. EV detection was performed using an AlphaLISA reagent (Perkin Elmer) composed of AlphaScreen streptavidin-coated donor beads (6760002), AlphaLISA unconjugated acceptor beads (6062011), and an AlphaLISA universal buffer (AL001F), a 96-well half-area white plate (6005560, Perkin Elmer), and a detection device EnSpire Alpha 2300 Mutilabel plate reader (Perkin Elmer). […]

Turning to `CC(C)(Sc1cc(C(C)(C)C)c(O)c(C(C)(C)C)c1)Sc1cc(C(C)(C)C)c(O)c(C(C)(C)C)c1` [probucol], the “EV secretion compared with NC” value with HCT116 and in the assay on A549 was “particularly effectively boosted EV secretion” in each case.
